Like-named read-outs stand apart in the source and are kept apart here.
Legend:
YFP-FRT cells = experiment: YFP fluorescence plate reader assay of anion transport in YFP-FRT cells; type: cell-based, Fischer rat; settings: for Corrected absolute initial slope |dF/dT|: transporter 50 μM, DMSO 0.5% v/v, DMSO-only subtracted, I^– 100 mM; for anion transport activity in YFP-FRT cells (in words): 50 μM
Experimental: We treated YFP-FRT cells with anionophores (final concentration, 1–50 μM) or the vehicle DMSO (0.1–0.5% v/v) by direct addition to the phosphate-buffered saline (PBS) bathing the cells. After incubating YFP-FRT cells with anionophores for 10 minutes at 37 °C, we evaluated anion transport activity by adding I^– (100 mM), using a PBS iodide solution with Cl^– replaced by I^–, and following cell fluorescence for 14 s. FRT cells are relatively impermeable to anions because they lack key ion channels found in epithelial cells, including CFTR.[33] Thus, in the absence of anionophore, iodide cannot enter YFP-FRT cells and no quenching of fluorescence occurs. By contrast, in the presence of an anionophore, iodide influx occurs leading to fluorescence quenching.[29]
To quantify anion transport by different anionophores, we fitted first order exponential functions to the iodide-induced fluorescence decay to measure the initial slope, averaging values over multiple experiments. Fig. 2b and Table 1 summarise the data. Consistent with our previous results,[29] we observed a wide range of anion transport activity. […] We therefore selected for further study 11, 12, 15 and 19.
FRT cells stably expressing the halide sensor YFP-H148Q/I152L6 were generous gifts of AS Verkman (University of California, San Francisco), while CFBE41o- cells7 stably expressing YFP (YFP-CFBE cells) were a generous gift of LJV Galietta (Telethon Institute for […]
Genetics and Medicine). […]
U ml-1 penicillin and […] streptomycin. All cells were incubated at 37 °C in a humidified atmosphere with 5% CO2. […]
Fluorescence plate reader assay […]
quenching of YFP fluorescence at 37 °C using a microplate reader following the method of Galietta et al..9 The microplate reader (model: FLUORstar Omega; BMG LABTECH Ltd., Aylesbury, UK) was equipped with a syringe pump and excitation (500 ± 10 nm) and emission (535 ± 15 nm) filters (Chroma Technology GmbH, Olching, Germany). After washing cells twice with PBS (composition (mM): 137 NaCl, 2.7 KCl, 8.1 Na2HPO4, 1.5 KH2PO4, 1 CaCl2 and 0.5 MgCl2, pH 7.40), cells were incubated with test anionophores (1 – 50 µM) or the vehicle (DMSO [0.1 – 0.5% v v-1]) in 40 µl of PBS for 10 – 120 minutes according to the experimental design. Other compounds, including forskolin, ivacaftor and channel inhibitors were added to […]
the PBS bathing cells 10 minutes prior to PBS iodide addition, whereas UTP was added to cells with the PBS iodide solution. Fluorescence was measured for 14 seconds; 2 seconds before and 12 seconds after injection of 110 µl PBS iodide solution (137 mM Cl- replaced by I-) into each well (to obtain a final concentration of I- of 100 mM).
We expressed cell fluorescence values (F) relative to the fluorescence value immediately before I- injection (F0), excluding the initial decrease, which likely represents the quenching of extracellular YFP released from cells and signal reduction accompanying the increase in solution volume bathing cells. To quantify anion transport by test anionophores, we determined the initial slope of the fluorescence decay following I - addition by fitting first order exponential functions to the last 12 seconds of each fluorescence recording. In each experim ent, n values represent the mean of two replicates and all treatments were tested at least three times using different microplates. […]
FRT cells was selected and the cells were perfused with (i) PBS for 5 minutes then (ii) PBS containing I- (10 mM) (made by preparing PBS with 127 mM NaCl to maintain osmolarity) for 5 minutes and finally (iii) PBS for 30 minutes to remove thoroughly I- from the perfusion chamber. YFP-FRT cells were repeatedly treated with I- (10 mM) and then washed with PBS […]
During all interventions, the rate of solution perfusion was 8 – 10 ml min-1; temperature was 37 °C and except for the first

[1] = design: method as in ref [16 and 25], [20], [21], [22], [23], [24], [29] (Reference column); settings: 1H NMR titrations with Bu4N^+Cl^– in DMSO-d6/H2O (200 : 1) at 298 K; ref [16 and 25], [20], [21], [22], [23], [24], [29]; cited from earlier work
[2] = design: method as in PMID 22461434, PMID 21846096, PMID 29786913; settings: mol% carrier to lipid for 50% Cl^– efflux in 270 s; 490 mM NaCl inside, 490 mM NaNO3 outside; ref [22], [16 and 25]; cited from earlier work
[3] = Cl-/NO3- exchange in LUVs with preincorporated anionophore (lucigenin method); type: biochemical; settings: transporter preincorporated in LUVs (70% POPC + 30% cholesterol), 25 mM NaCl gradient, 225 mM NaNO3; new compound or new data
Experimental: The four new anionophores were tested for affinity to Cl^– (in CHCl3 and DMSO, with tetra-alkylammonium counter-ions), and for anion transport (Cl^–/NO3^– exchange) when preloaded into 200 nm large unilamellar vesicles (LUVs). The latter assay was performed using the well-established “lucigenin method”[30] in which Cl^– influx into vesicles is followed through quenching of fluorescence from the halide-sensitive fluorophore lucigenin. The results are listed in Table 1, accompanied by corresponding values for the previously-reported compounds where available. […] In this test, anion transport by anionophores delivered externally to LUVs is compared with their action when preloaded into LUV membranes.[24],[29],[32]
3. Transport studies in vesicles
Transport measurements in vesicles with preincorporated anionophores.
1-Palmitoyl-2-oleoyl-sn-glycero-3-phosphocholine (POPC) was obtained from Avanti® Polar Lipids, Inc. An extrusion apparatus and 200 nm polycarbonate membranes were obtained from GC Technology Ltd. All lipid and receptor solutions were prepared using chloroform that had been deacidified by passage through a flash chromatography column containing basic alumina, and all aqueous solutions were prepared using deionised water that had been passed through a Millipore filtration system.
POPC and cholesterol solutions (~10 mM) in deacidified chloroform were combined with a solution of transporter in methanol or deacidified chloroform in a 5 mL round bottomed flask.
Volumes of the aliquots were calculated from the concentrations of the lipid solution to obtain a POPC to cholesterol ratio of 7:3 (for instance by combining 4.20 µmol POPC and 1.80 µmol cholesterol). The ratio of anionophore to lipid (POPC + cholesterol) was either 1:2500 or 1:25000, as specified in the experiments. The solvents from the lipid/receptor mixture were evaporated under a stream of N2 and the lipid film was dried under high vacuum for 1 h. The residue was hydrated with 500 µL of an aqueous solution of 10,10'-dimethyl-9,9'-biacridinium nitrate (lucigenin, 0.8 mM) and NaNO3 (225 mM), sonicated for 30 s and stirred for 1 h to give heterogeneous vesicles. Multilamellar vesicles were disrupted by 10 freeze-thaw cycles and then the solution was diluted to 1 mL (by adding 0.5 mL of 225 mM NaNO3) and carefully extruded (29 times) through a polycarbonate membrane (200 nm pore size) to give a uniform distribution of LUVs with an average diameter of ~200 nm.2 The external lucigenin was removed by passing the solution though a size exclusion column (containing ~2 g Sephadex 50G, eluted with 225 mM NaNO3). The collected vesicles were further diluted with NaNO3 solution (225 mM) to obtain a vesicle solution with 0.4 mM lipid concentration. 3.00 mL of this vesicle solution was placed in a quartz cuvette with a small stir bar and the fluorescence intensity (excitation at 450 nm, emission at 535 nm) was measured over time at 25 °C, using a PerkinElmer LS45 fluorescence spectrometer. 75 µL of aqueous NaCl (1.0 M in 225 mM NaNO3, to give an overall external chloride concentration of 25 mM) was added ~30 seconds after the start of the experiment and the fluorescence intensity was measured for another 14 […]
Fluorescence data were collected for at least four replicate experiments. The plateau (before addition of chloride) and the vertical drop (the first 1-2.5 seconds after chloride addition, due to quenching of external lucigenin) were removed. Next the data were normalized: all fluorescence values (F) were divided by the fluorescence value before addition of chloride (F0).
Initial rates (I) were obtained from fluorescence -decay curves (0-500 s) by fitting their inverse (F0/F) to a double exponential decay function:
Differentiating this gives F = abe−bt + cde−dt […]
and substituting t = 0 gives the following equation for initial rate: I = ab + cd Specific initial rates [I] were obtained by dividing the initial rates by the anionophore to lipid […]

[4] = design: method as in ref [20], [21], [23], [24], [29] (Reference column); settings: transporter preincorporated in LUVs (70% POPC + 30% cholesterol), 25 mM NaCl gradient, 225 mM NaNO3; ref [20], [21], [23], [24], [29]; cited from earlier work
[5] = Affinity to Cl- in chloroform by extraction of Et4N+Cl- from water; type: binding; settings: extraction of Et4N^+Cl^– from water into chloroform at 303 K; new compound or new data
Experimental: Measurement of affinities to Et4N+Cl- in chloroform through extraction from […]
This method is adapted from Clare et al..4 The Et4N+Cl- salt was obtained from Sigma Aldrich and dried under vacuum overnight prior to solution preparation using deionised water that had been passed through a Millipore filtration system. All host solutions were prepared using chloroform that had been deacidified by passage through a flash chromatography column containing basic alumina.
A solution of host in deacidified chloroform was combined with 10 mL of aqueous Et4N+Cl-guest solution in a sample tube (30 mL). Concentrations and volumes are specified in Table
S1. A magnetic stirring bar (2 cm) was added to the tube and the lower half was immersed in a water bath heated to 303 K, while the contents were stirred vigorously to achieve good mixing of the two phases. After 30 minutes, stirring was stopped and the two phases were allowed to separate. The majority of the aqueous phase was then removed using a pipette and the remaining organic phase was centrifuged for 10 minutes at 4000 rpm. The chloroform solution was then filtered through Whatman 1PS hydrophobic filter paper to remove any remaining aqueous phase. Solvent from the filtrate was then removed in vacuo and the solid was further dried under vacuum. The resulting solids from the extraction experiments were dissolved in acetone-d6 and the solutions were analysed with 1H NMR spectroscopy.
A value for the molar ratio (R) was determined by integrating the signal at δ = 3.5 ppm (CH2 of Et4N+Cl-) against one of the receptor signals.
The values for R obtained from the 1H NMR spectra were used to calculate values for the equilibrium extraction constants Ke:
Horg + Xaq− + Yaq+ ⇌HX−Yorg+ Ke = org […]
To convert the extraction constants Ke into association constants Ka it is necessary to obtain the distribution constants Kd for the substrates between aqueous and organic phases:
The Kd value for tetraethylammonium chloride partitioning between water and chloroform has been determined and reported previously to be 1.269 × 10-5 M-1.5
The binding constant Ka is then calculated from Ke and Kd:
H + X−Y+ ⇌ HX−Y+ K = org = e […]
When [G] > 100 mM, the amount of salt that migrates from the aqueous phase into the organic phase without assistance of the host has to be taken into account by correcting the measured […]
Table S1. Overview of the conditions and results from the extraction experiments Receptor [H] (mM) [G] (mM) Vorg (mL) Vaq (mL) Rmeasured Ka (M-1)

SMILES	Corrected absolute initial slope |dF/dT| (YFP-FRT cells)	K a to Cl^– in DMSO [1]	EC50, 270 s [2]	Specific initial rate [I] [3]	Specific initial rate [I] [4]	K a to Cl^– in CHCl3 [5]	anion transport activity in YFP-FRT cells (in words) (YFP-FRT cells)
O=c1c(Nc2ccccc2)c(Nc2ccccc2)c1=O [Compound 1]	0 ×10^–3 s^–1	2.6 × 10^2 M^–1	1.38 mol%	–	–	–	–
O=c1c(Nc2ccc(C(F)(F)F)cc2)c(Nc2ccc(C(F)(F)F)cc2)c1=O [Compound 2]	0.3 ×10^–3 s^–1	4.6 × 10^2 M^–1	0.06 mol%	–	–	–	–
O=c1c(Nc2cc(C(F)(F)F)cc(C(F)(F)F)c2)c(Nc2cc(C(F)(F)F)cc(C(F)(F)F)c2)c1=O [Compound 3]	0 ×10^–3 s^–1	6.4 × 10^2 M^–1	0.01 mol%	75 ^b s^–1	–	–	–
CCc1c(CNC(=S)Nc2ccc([N+](=O)[O-])cc2)c(CC)c(CNC(=S)Nc2ccc([N+](=O)[O-])cc2)c(CC)c1CNC(=S)Nc1ccc([N+](=O)[O-])cc1 [Compound 4]	0.2 ×10^–3 s^–1	3.8 × 10^2 M^–1	–	–	5 s^–1	–	–
CCc1c(CNC(=O)Nc2cc(C(F)(F)F)cc(C(F)(F)F)c2)c(CC)c(CNC(=O)Nc2cc(C(F)(F)F)cc(C(F)(F)F)c2)c(CC)c1CNC(=O)Nc1cc(C(F)(F)F)cc(C(F)(F)F)c1 [Compound 7]	0.2 ×10^–3 s^–1	3.9 × 10^2 M^–1	–	–	50 s^–1	–	–
S=C(NCCN(CCNC(=S)Nc1ccccc1)CCNC(=S)Nc1ccccc1)Nc1ccccc1 [Compound 17]	0.5 ×10^–3 s^–1	1.8 × 10^3 M^–1	0.31 mol%	–	–	5.2 × 10^5 ^b M^–1	–
O=C(Nc1ccc([N+](=O)[O-])cc1)Nc1cccc2cc3cccc(NC(=O)Nc4ccc([N+](=O)[O-])cc4)c3cc12 [Compound 20]	8.4 ×10^–3 s^–1	2.6 × 10^3 M^–1	–	–	2100 s^–1	–	intermediate levels
O=C(Nc1ccc(C(F)(F)F)cc1)Nc1cccc2cc3cccc(NC(=O)Nc4ccc(C(F)(F)F)cc4)c3cc12 [Compound 21]	1.7 ×10^–3 s^–1	2.2 × 10^3 M^–1	–	–	1200 s^–1	–	–
O=C(Nc1cc(C(F)(F)F)cc(C(F)(F)F)c1)Nc1cccc2cc3cccc(NC(=O)Nc4cc(C(F)(F)F)cc(C(F)(F)F)c4)c3cc12 [Compound 22]	9.0 ×10^–3 s^–1	3.0 × 10^3 M^–1	–	–	1900 s^–1	–	intermediate levels

Reference: article PMC6984391, “Anion carriers as potential treatments for cystic fibrosis: transport in cystic fibrosis cells, and additivity to channel-targeting drugs” (Chemical Science, 2019)
